Results published in patent US20260070945A1, “MACROCYCLIC IMMUNOMODULATORS” (Bristol-Myers Squibb Company, priority 2022, published 2026).
Where a SMILES comes first, the peptide text is derived from it. Bridges are numbered along the chain shown (N, C = ends). [ ]: non-standard residue; d: D form. The star is where a group is joined. ξ: configuration not given here. Phe(4-CONH2) = NC(=O)c1ccc(C[C@H](N)C(=O)O)cc1; Phe(4-COOH) = N[C@@H](Cc1ccc(C(=O)O)cc1)C(=O)O; Bip = N[C@@H](Cc1ccc(-c2ccccc2)cc1)C(=O)O; NH(CH2)14COOH = O=C(O)CCCCCCCCCCCCCCN*; Phe(3-Me) = Cc1cccc(C[C@H](N)C(=O)O)c1; Phe(4-F) = N[C@@H](Cc1ccc(F)cc1)C(=O)O; Val(3-OH) = CC(C)(O)[C@H](N)C(=O)O; 4Pal = N[C@@H](Cc1ccncc1)C(=O)O; Cha = N[C@@H](CC1CCCCC1)C(=O)O; Ile(3ξ) = CCC(C)[C@H](N)C(=O)O; Thr(3ξ) = CC(O)[C@H](N)C(=O)O; Carboxymethyl = O=C(O)C*; NMeA = CN[C@@H](C)C(=O)O; Aun = NCCCCCCCCCCC(=O)O; Dab = NCC[C@H](N)C(=O)O; AEEA = NCCOCCOCC(=O)O

biological target: T1, PD-1/PD-L1 interaction (PE-labeled human PD-L1-Ig binding to Jurkat cell line over-expressing human PD-1) (Homo sapiens, UniProt Q15116); experiment: Jurkat-PD-1 Cell Binding High-Content Screening Assay (CBA); conditions: PE-labeled PD-L1-Ig 20 nM final, Jurkat-hPD-1 cells; read-out: Jurkat HPD1 PDL1 IC50
T1 construct: expressed in transfected cells; host or cells: Jurkat
T1 sequence (Q15116 25-288): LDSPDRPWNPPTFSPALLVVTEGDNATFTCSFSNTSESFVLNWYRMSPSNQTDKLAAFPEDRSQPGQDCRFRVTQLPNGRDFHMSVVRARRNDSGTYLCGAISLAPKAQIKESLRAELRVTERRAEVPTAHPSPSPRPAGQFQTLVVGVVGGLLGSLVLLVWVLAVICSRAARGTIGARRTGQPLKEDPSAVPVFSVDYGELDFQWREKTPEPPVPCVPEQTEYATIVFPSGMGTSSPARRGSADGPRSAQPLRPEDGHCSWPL
In short: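 High-content imaging read-out of PE-PD-L1-Ig binding (20 nM final, 1 h) to Jurkat-hPD-1 cells, after 2 h compound exposure at 37 °C in DMEM with 10% FCS. Nuclei counterstained with Hoechst 33342 after paraformaldehyde fixation.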

Question: With CCC(C)[C@@H]1NC(=O)[C@H](Cc2ccc(-c3ccccc3)cc2)NC(=O)[C@H](C(C)C)NC(=O)[C@H](Cc2c[nH]c3ccccc23)NC(=O)[C@H](CC(=O)O)NC(=O)[C@H](Cc2ccc(C(=O)O)cc2)NC(=O)[C@H](Cc2cnc[nH]2)NC(=O)CSC[C@@H](C(=O)N[C@@H](CCN)C(=O)NCCOCCOCC(=O)NCCOCCOCC(=O)NCCCCCCCCCCC(=O)O)NC(=O)[C@H](C(C)O)NC(=O)[C@H](C(C)O)NC(=O)[C@H](CC2CCCCC2)NC(=O)[C@H](CCN)NC(=O)[C@@H](CC(C)C)NC(=O)[C@H](C)N(C)C1=O (stereo partly drawn) [Example 2529] ({CH2CO}-H[Phe(4-COOH)]DWV[Bip][Ile(3ξ)][NMeA][dL][Dab][Cha][Thr(3ξ)][Thr(3ξ)]C[Dab][AEEA][AEEA][Aun]-OH; thioether N-14) as the compound, how does the IC50 read?
Answer: Its IC50 is 4.4 nM.

Question: How did the IC50 turn out when CCC(C)[C@@H]1NC(=O)[C@H](Cc2ccc(-c3ccccc3)cc2)NC(=O)[C@H](C(C)C)NC(=O)[C@H](Cc2c[nH]c3ccccc23)NC(=O)[C@H](CC(=O)O)NC(=O)[C@H](Cc2ccc(C(=O)O)cc2)NC(=O)[C@H](Cc2cnc[nH]2)NC(=O)CSC[C@@H](C(=O)N[C@@H](CCN)C(=O)NCCOCCOCC(=O)NCCCCCCCCCCC(=O)O)NC(=O)[C@H](C(C)O)NC(=O)[C@H](C(C)(C)O)NC(=O)[C@H](CC2CCCCC2)NC(=O)[C@H](CCN)NC(=O)[C@@H](CC(C)C)NC(=O)[C@H](C)N(C)C1=O (stereo partly drawn) [Example 2530] ({CH2CO}-H[Phe(4-COOH)]DWV[Bip][Ile(3ξ)][NMeA][dL][Dab][Cha][Val(3-OH)][Thr(3ξ)]C[Dab][AEEA][Aun]-OH; thioether N-14) was run?
Answer: The IC50 was 2.4 nM.

Question: Which IC50 does the source give for CCC(C)[C@@H]1NC(=O)[C@H](Cc2ccc(-c3ccccc3)cc2)NC(=O)[C@H](C(C)C)NC(=O)[C@H](Cc2c[nH]c3ccccc23)NC(=O)[C@H](CC(=O)O)NC(=O)[C@H](Cc2ccc(C(=O)O)cc2)NC(=O)[C@H](Cc2cnc[nH]2)NC(=O)CSC[C@@H](C(=O)N[C@@H](CCN)C(=O)NCCOCCOCC(=O)NCCCCCCCCCCC(=O)O)NC(=O)[C@H](CCC(=O)O)NC(=O)[C@H](C(C)(C)O)NC(=O)[C@H](CC2CCCCC2)NC(=O)[C@H](CCN)NC(=O)[C@@H](CC(C)C)NC(=O)[C@H](C)N(C)C1=O (stereo partly drawn) [Example 2531] ({CH2CO}-H[Phe(4-COOH)]DWV[Bip][Ile(3ξ)][NMeA][dL][Dab][Cha][Val(3-OH)]EC[Dab][AEEA][Aun]-OH; thioether N-14) here?
Answer: Its IC50 is 1 nM.

Question: CC(=O)NCCCC[C@@H]1NC(=O)[C@H](C(C)(C)O)NC(=O)[C@H](CC2CCCCC2)NC(=O)[C@H](CCN)NC(=O)[C@@H](CC(C)C)NC(=O)[C@H](C)N(C)C(=O)[C@H](CCC(=O)O)NC(=O)[C@H](Cc2ccc(-c3ccccc3)cc2)NC(=O)[C@H](Cc2ccc(C(N)=O)cc2)NC(=O)[C@H](Cc2cccc(C)c2)NC(=O)[C@H](CC(=O)O)NC(=O)[C@H](Cc2ccc(OCC(=O)O)cc2)NC(=O)[C@H](Cc2ccc(OCC(=O)O)cc2)NC(=O)CSC[C@@H](C(=O)N[C@@H](CCN)C(=O)NCCOCCOCC(=O)NCCCCCCCCCCC(=O)O)NC1=O [Example 2532] ({CH2CO}-Y(Carboxymethyl)Y(Carboxymethyl)D[Phe(3-Me)][Phe(4-CONH2)][Bip]E[NMeA][dL][Dab][Cha][Val(3-OH)]K(Ac)C[Dab][AEEA][Aun]-OH; thioether N-14) was tested. Which IC50 did it give?
Answer: Its IC50 is 1.4 nM.

Question: Which IC50 does the source give for CC(=O)NCCCC[C@@H]1NC(=O)[C@H](C(C)(C)O)NC(=O)[C@H](CC2CCCCC2)NC(=O)[C@H](CCN)NC(=O)[C@@H](CC(C)C)NC(=O)[C@H](C)N(C)C(=O)[C@H](CCC(=O)O)NC(=O)[C@H](Cc2ccc(-c3ccccc3)cc2)NC(=O)[C@H](Cc2ccc(C(N)=O)cc2)NC(=O)[C@H](Cc2cccc(C)c2)NC(=O)[C@H](CC(=O)O)NC(=O)[C@H](Cc2ccc(C(=O)O)cc2)NC(=O)[C@H](Cc2ccc(OCC(=O)O)cc2)NC(=O)CSC[C@@H](C(=O)N[C@@H](CCN)C(=O)NCCOCCOCC(=O)NCCOCCOCC(=O)NCCCCCCCCCCC(=O)O)NC1=O [Example 2533] ({CH2CO}-Y(Carboxymethyl)[Phe(4-COOH)]D[Phe(3-Me)][Phe(4-CONH2)][Bip]E[NMeA][dL][Dab][Cha][Val(3-OH)]K(Ac)C[Dab][AEEA][AEEA][Aun]-OH; thioether N-14) here?
Answer: The IC50 was 2.3 nM.

Question: Which IC50 does the source give for CC(=O)NCCCC[C@@H]1NC(=O)[C@H](C(C)O)NC(=O)[C@H](CC2CCCCC2)NC(=O)[C@H](CCN)NC(=O)[C@@H](CC(C)C)NC(=O)[C@H](C)N(C)C(=O)[C@H](CCC(=O)O)NC(=O)[C@H](Cc2ccc(-c3ccccc3)cc2)NC(=O)[C@H](Cc2ccc(C(N)=O)cc2)NC(=O)[C@H](Cc2cccc(C)c2)NC(=O)[C@H](CC(=O)O)NC(=O)[C@H](Cc2ccc(C(=O)O)cc2)NC(=O)[C@H](Cc2ccc(OCC(=O)O)cc2)NC(=O)CSC[C@@H](C(=O)N[C@@H](CCN)C(=O)NCCOCCOCC(=O)NCCCCCCCCCCC(=O)O)NC1=O (stereo partly drawn) [Example 2534] ({CH2CO}-Y(Carboxymethyl)[Phe(4-COOH)]D[Phe(3-Me)][Phe(4-CONH2)][Bip]E[NMeA][dL][Dab][Cha][Thr(3ξ)]K(Ac)C[Dab][AEEA][Aun]-OH; thioether N-14) here?
Answer: Its IC50 is 1.7 nM.

Question: Which IC50 does the source give for Cc1cccc(C[C@@H]2NC(=O)[C@H](CC(=O)O)NC(=O)[C@H](Cc3ccc(C(=O)O)cc3)NC(=O)[C@H](Cc3ccncc3)NC(=O)CSC[C@@H](C(=O)N[C@@H](CCN)C(=O)NCCOCCOCC(=O)NCCOCCOCC(=O)NCCCCCCCCCCC(=O)O)NC(=O)[C@H](CCC(=O)O)NC(=O)[C@H](C(C)C)NC(=O)[C@H](CC3CCCCC3)NC(=O)[C@H](CCN)NC(=O)[C@@H](CC(C)C)NC(=O)[C@H](C)N(C)C(=O)[C@H](CCC(=O)O)NC(=O)[C@H](Cc3ccc(-c4ccccc4)cc3)NC(=O)[C@H](Cc3ccc(C(N)=O)cc3)NC2=O)c1 [Example 2536] ({CH2CO}-[4Pal][Phe(4-COOH)]D[Phe(3-Me)][Phe(4-CONH2)][Bip]E[NMeA][dL][Dab][Cha]VEC[Dab][AEEA][AEEA][Aun]-OH; thioether N-14) here?
Answer: The IC50 was 435 nM.

Question: How did the IC50 turn out when Cc1cccc(C[C@@H]2NC(=O)[C@H](CC(=O)O)NC(=O)[C@H](Cc3ccc(OCC(=O)O)cc3)NC(=O)[C@H](C(C)O)NC(=O)CSC[C@@H](C(=O)N[C@@H](CCN)C(=O)NCCOCCOCC(=O)NCCOCCOCC(=O)NCCCCCCCCCCC(=O)O)NC(=O)[C@H](CCC(=O)O)NC(=O)[C@H](C(C)(C)O)NC(=O)[C@H](CC3CCCCC3)NC(=O)[C@H](CCN)NC(=O)[C@@H](CC(C)C)NC(=O)[C@H](C)N(C)C(=O)[C@H](Cc3ccc(C(=O)O)cc3)NC(=O)[C@H](Cc3ccc(-c4ccccc4)cc3)NC(=O)[C@H](Cc3ccc(C(=O)O)cc3)NC2=O)c1 (stereo partly drawn) [Example 2537] ({CH2CO}-[Thr(3ξ)]Y(Carboxymethyl)D[Phe(3-Me)][Phe(4-COOH)][Bip][Phe(4-COOH)][NMeA][dL][Dab][Cha][Val(3-OH)]EC[Dab][AEEA][AEEA][Aun]-OH; thioether N-14) was run?
Answer: The IC50 was 17.1 nM.

Question: With Cc1cccc(C[C@@H]2NC(=O)[C@H](CC(=O)O)NC(=O)[C@H](Cc3ccc(C(=O)O)cc3)NC(=O)[C@H](C(C)O)NC(=O)CSC[C@@H](C(=O)N[C@@H](CCN)C(=O)NCCOCCOCC(=O)NCCOCCOCC(=O)NCCCCCCCCCCC(=O)O)NC(=O)[C@H](CCC(=O)O)NC(=O)[C@H](C(C)C)NC(=O)[C@H](CC3CCCCC3)NC(=O)[C@H](CCN)NC(=O)[C@@H](CC(C)C)NC(=O)[C@H](C)N(C)C(=O)[C@H](Cc3ccc(C(=O)O)cc3)NC(=O)[C@H](Cc3ccc(-c4ccccc4)cc3)NC(=O)[C@H](Cc3ccc(C(=O)O)cc3)NC2=O)c1 (stereo partly drawn) [Example 2538] ({CH2CO}-[Thr(3ξ)][Phe(4-COOH)]D[Phe(3-Me)][Phe(4-COOH)][Bip][Phe(4-COOH)][NMeA][dL][Dab][Cha]VEC[Dab][AEEA][AEEA][Aun]-OH; thioether N-14) as the compound, how does the IC50 read?
Answer: Its IC50 is 12.4 nM.

Question: How did the IC50 turn out when Cc1cccc(C[C@@H]2NC(=O)[C@H](CC(=O)O)NC(=O)[C@H](Cc3ccc(C(=O)O)cc3)NC(=O)[C@H](C(C)O)NC(=O)CSC[C@@H](C(=O)N[C@@H](CCN)C(=O)NCCOCCOCC(=O)NCCOCCOCC(=O)NCCOCCOCC(=O)NCCCCCCCCCCCCCCC(=O)O)NC(=O)[C@H](CCC(=O)O)NC(=O)[C@H](C(C)C)NC(=O)[C@H](CC3CCCCC3)NC(=O)[C@H](CCN)NC(=O)[C@@H](CC(C)C)NC(=O)[C@H](C)N(C)C(=O)[C@H](Cc3ccc(C(=O)O)cc3)NC(=O)[C@H](Cc3ccc(-c4ccccc4)cc3)NC(=O)[C@H](Cc3ccc(C(=O)O)cc3)NC2=O)c1 (stereo partly drawn) [Example 2539] ({CH2CO}-[Thr(3ξ)][Phe(4-COOH)]D[Phe(3-Me)][Phe(4-COOH)][Bip][Phe(4-COOH)][NMeA][dL][Dab][Cha]VEC[Dab][AEEA][AEEA][AEEA]-{NH(CH2)14COOH}; thioether N-14) was run?
Answer: Its IC50 is 350 nM.

Question: Which IC50 does the source give for Cc1cccc(C[C@@H]2NC(=O)[C@H](CC(=O)O)NC(=O)[C@H](Cc3ccc(C(=O)O)cc3)NC(=O)[C@H](Cc3ccncc3)NC(=O)CSC[C@@H](C(=O)N[C@@H](CCN)C(=O)NCCOCCOCC(=O)NCCCCCCCCCCC(=O)O)NC(=O)[C@H](C(C)O)NC(=O)[C@H](C(C)(C)O)NC(=O)[C@H](CC3CCCCC3)NC(=O)[C@H](CCN)NC(=O)[C@@H](CC(C)C)NC(=O)[C@H](C)N(C)C(=O)[C@H](CCC(=O)O)NC(=O)[C@H](Cc3ccc(-c4ccccc4)cc3)NC(=O)[C@H](Cc3ccc(C(N)=O)cc3)NC2=O)c1 (stereo partly drawn) [Example 2540] ({CH2CO}-[4Pal][Phe(4-COOH)]D[Phe(3-Me)][Phe(4-CONH2)][Bip]E[NMeA][dL][Dab][Cha][Val(3-OH)][Thr(3ξ)]C[Dab][AEEA][Aun]-OH; thioether N-14) here?
Answer: Its IC50 is 9 nM.

Question: With Cc1cccc(C[C@@H]2NC(=O)[C@H](CC(=O)O)NC(=O)[C@H](Cc3ccc(C(=O)O)cc3)NC(=O)[C@H](Cc3ccc(F)cc3)NC(=O)CSC[C@@H](C(=O)N[C@@H](CCN)C(=O)NCCOCCOCC(=O)NCCOCCOCC(=O)NCCCCCCCCCCC(=O)O)NC(=O)[C@H](CCC(=O)O)NC(=O)[C@H](C(C)C)NC(=O)[C@H](CC3CCCCC3)NC(=O)[C@H](CCN)NC(=O)[C@@H](CC(C)C)NC(=O)[C@H](C)N(C)C(=O)[C@H](Cc3ccc(C(=O)O)cc3)NC(=O)[C@H](Cc3ccc(-c4ccccc4)cc3)NC(=O)[C@H](Cc3ccc(C(=O)O)cc3)NC2=O)c1 [Example 2542] ({CH2CO}-[Phe(4-F)][Phe(4-COOH)]D[Phe(3-Me)][Phe(4-COOH)][Bip][Phe(4-COOH)][NMeA][dL][Dab][Cha]VEC[Dab][AEEA][AEEA][Aun]-OH; thioether N-14) as the compound, how does the IC50 read?
Answer: Its IC50 is 2.4 nM.
